Target: Receptor tyrosine-protein kinase erbB-2 (Homo sapiens, UniProt P04626)
Experiment: BT474 Cellular Assay (HER2 Inhibition)
Experimental: Inhibition of phosphor HER2 was determined by enzyme-linked immunosorbent assay (ELISA) in BT474 cells. BT474 cell line was purchased from ATCC (catalog number HTB-20). Human Phospho-ErbB2 ELISA kit was purchased from R&D systems (catalog number DYC1768).

Receptor tyrosine-protein kinase erbB-2, sequence (P04626 whole entry): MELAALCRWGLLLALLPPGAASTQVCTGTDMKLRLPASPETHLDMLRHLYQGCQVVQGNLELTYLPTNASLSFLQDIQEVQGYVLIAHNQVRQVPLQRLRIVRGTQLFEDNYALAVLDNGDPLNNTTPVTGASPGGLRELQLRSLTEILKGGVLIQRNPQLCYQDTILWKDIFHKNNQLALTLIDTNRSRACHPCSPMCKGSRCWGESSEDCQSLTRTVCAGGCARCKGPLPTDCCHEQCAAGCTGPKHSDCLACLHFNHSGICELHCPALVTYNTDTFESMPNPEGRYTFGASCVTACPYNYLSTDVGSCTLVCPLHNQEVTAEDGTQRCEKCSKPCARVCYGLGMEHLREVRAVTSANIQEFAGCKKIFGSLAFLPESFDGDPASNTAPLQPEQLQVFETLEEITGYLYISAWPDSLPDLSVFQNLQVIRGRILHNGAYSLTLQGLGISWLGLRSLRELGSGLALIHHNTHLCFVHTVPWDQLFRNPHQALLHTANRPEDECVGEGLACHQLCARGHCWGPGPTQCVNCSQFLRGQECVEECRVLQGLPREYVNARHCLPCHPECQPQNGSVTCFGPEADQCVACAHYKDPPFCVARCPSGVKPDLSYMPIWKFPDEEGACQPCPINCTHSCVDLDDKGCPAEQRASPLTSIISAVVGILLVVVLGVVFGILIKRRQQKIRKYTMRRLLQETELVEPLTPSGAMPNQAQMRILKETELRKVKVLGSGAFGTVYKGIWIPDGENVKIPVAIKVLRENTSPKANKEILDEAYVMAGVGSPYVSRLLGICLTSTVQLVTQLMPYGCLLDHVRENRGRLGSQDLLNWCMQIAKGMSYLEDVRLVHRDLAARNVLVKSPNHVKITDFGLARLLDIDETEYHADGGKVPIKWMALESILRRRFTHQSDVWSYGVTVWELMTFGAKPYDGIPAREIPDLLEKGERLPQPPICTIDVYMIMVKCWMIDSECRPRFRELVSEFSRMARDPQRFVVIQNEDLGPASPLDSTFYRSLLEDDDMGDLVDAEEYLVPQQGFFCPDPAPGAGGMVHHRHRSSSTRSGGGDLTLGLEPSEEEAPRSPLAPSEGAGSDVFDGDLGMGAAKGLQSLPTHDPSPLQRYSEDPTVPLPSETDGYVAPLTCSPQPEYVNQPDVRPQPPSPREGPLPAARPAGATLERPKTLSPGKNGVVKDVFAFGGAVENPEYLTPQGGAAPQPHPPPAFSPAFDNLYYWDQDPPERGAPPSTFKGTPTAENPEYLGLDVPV

Q: With `Cc1cc(Nc2ncnc3ccc(OC(F)(F)F)c(O[C@H]4CCN(C)CC4(F)F)c23)ccc1Oc1cc2ncnn2cn1` [US11723908, Example 73] as the compound, how does the IC50 read?
A: The IC50 was 145 nM.

Reference: BindingDB's records for patent US11723908 (Suzhou Zanrong Pharma, 2023)
